Measured values as given in patent US8884061B2, “Compositions and methods of use of electron transport system inhibitors” (priority 2006, dated 2014).
≈ marks a conversion by molar mass, not a printed value. Like-named read-outs stand apart in the source and are kept apart here.

Experiments:
E. faecium ATCC 49224 = assay: MIC, other bacteria (Table 3); type: cell-based; settings: E. faecium ATCC 49224, GM-resistant, inoculum size 10^6 CFU/ml
P. mirabilis ATCC 4630 = assay: MIC, other bacteria (Table 3); type: cell-based
MRSA 2441-05223 = assay: MIC, other bacteria (Table 3); type: cell-based, S. aureus; settings: inoculum size 10^6 CFU/ml
E. coli ATCC 25922 = assay: MIC, other bacteria (Table 3); type: cell-based
MRSE 2442-05053 = assay: MIC, other bacteria (Table 3); type: cell-based, S. epidermidis; settings: inoculum size 10^6 CFU/ml
P. aeruginosa ATCC 27853 = assay: MIC, other bacteria (Table 3); type: cell-based
M. kansasii NIHJ1619 = assay: MIC, agar (7H11) dilution method; type: cell-based
M. fortuitum NIHJ1615 = assay: MIC, agar (7H11) dilution method; type: cell-based
MRSA 2441-05104 = assay: MIC, other bacteria (Table 3); type: cell-based, S. aureus; settings: inoculum size 10^6 CFU/ml
M. aurum = assay: MIC, agar (7H11) dilution method; type: cell-based
E. faecalis ATCC 29212 = assay: MIC, other bacteria (Table 3); type: cell-based
[1] = tested on: E. faecalis ATCC 51299 (VRE); assay: MIC, other bacteria (Table 3); type: cell-based; settings: low level VCM-resistant, Van B, inoculum size 10^6 CFU/ml
M. tuberculosis Kurono = assay: MIC, agar (7H11) dilution method; type: cell-based; settings: M. tuberculosis Kurono, agar (7H11) dilution
MRSA 2441-05262 = assay: MIC, other bacteria (Table 3); type: cell-based, S. aureus; settings: inoculum size 10^6 CFU/ml
MRSE 2442-05118 = assay: MIC, other bacteria (Table 3); type: cell-based, S. epidermidis; settings: inoculum size 10^6 CFU/ml
VRSA 2441-T0041 = assay: MIC, other bacteria (Table 3); type: cell-based, S. aureus; settings: VRSA 2441-T0041, low level VCM-resistant, inoculum size 10^6 CFU/ml
S. aureus ATCC 29213 = assay: MIC, other bacteria (Table 3); type: cell-based
M. smegmatis Takeo = assay: MIC, agar (7H11) dilution method; type: cell-based
[2] = tested on: E. faecalis NCTC 12201 (VRE); assay: MIC, other bacteria (Table 3); type: cell-based; settings: high level VCM-resistant, Van A, inoculum size 10^6 CFU/ml
[3] = tested on: S. aureus ATCC 43300 (MRSA); assay: MIC, other bacteria (Table 3); type: cell-based; settings: inoculum size 10^6 CFU/ml
M. bovis BCG Tokyo = assay: microbe, parasite or virus in culture; type: cell-based
M. tuberculosis H37Rv = assay: MIC, agar (7H11) dilution method; type: cell-based; settings: for MIC: Mycobacterium tuberculosis, H37RV
MRSE 2442-05047 = assay: MIC, other bacteria (Table 3); type: cell-based, S. epidermidis; settings: inoculum size 10^6 CFU/ml
MRSE 2442-05060 = assay: MIC, other bacteria (Table 3); type: cell-based, S. epidermidis; settings: inoculum size 10^6 CFU/ml
MRSA 2441-05112 = assay: MIC, other bacteria (Table 3); type: cell-based, S. aureus; settings: inoculum size 10^6 CFU/ml
M. avium Flamingo = assay: MIC, agar (7H11) dilution method; type: cell-based
[4] = tested on: E. faecium NCTC 12203 (VRE); assay: MIC, other bacteria (Table 3); type: cell-based; settings: high level VCM-resistant, Van A, inoculum size 10^6 CFU/ml
MRSE 2442-05110 = assay: MIC, other bacteria (Table 3); type: cell-based, S. epidermidis; settings: inoculum size 10^6 CFU/ml
MRSE 2442-05030 = assay: MIC, other bacteria (Table 3); type: cell-based, S. epidermidis; settings: inoculum size 10^6 CFU/ml
[5] = tested on: M. intracellularae ATCC 15984; assay: MIC, agar (7H11) dilution method; type: cell-based
[6] = tested on: S. epidermidis ATCC 12228; assay: MIC, other bacteria (Table 3); type: cell-based
MRSA 2441-05129 = assay: MIC, other bacteria (Table 3); type: cell-based, S. aureus; settings: inoculum size 10^6 CFU/ml
VRSA 2441-T0044 = assay: MIC, other bacteria (Table 3); type: cell-based, S. aureus
K. pneumoniae ATCC 27736 = assay: MIC, other bacteria (Table 3); type: cell-based
S. marsascens ATCC 14756 = assay: MIC, other bacteria (Table 3); type: cell-based; settings: inoculum size 10^6 CFU/ml
MRSA 2441-05254 = assay: MIC, other bacteria (Table 3); type: cell-based, S. aureus; settings: inoculum size 10^6 CFU/ml
[7] = Staphylococcus aureus, read-out: MIC
[8] = Staphylococcus epidermidis, read-out: MIC
[9] = Enterococcus faecalis, read-out: MIC

C=CCN(C)CCCCCCCCOc1ccc(C(O)c2ccc(Cl)cc2)c(Cl)c1 (centres unmarked) [Cpd #21, (4-(8-(allyl(methyl)amino)octyloxy)-2-chlorophenyl)(4-chlorophenyl)methanol]
MIC (E. faecium ATCC 49224; Enterococcus faecium, ATCC49224, read-out: MIC): 50 µg/mL (≈ 111 µM) | MIC (P. mirabilis ATCC 4630; Proteus mirabilis, ATCC4630, inoculum size 10^6 CFU/ml, read-out: MIC): > 100 µg/mL | MIC (MRSA 2441-05223; [7]): > 100 µg/mL | MIC (E. coli ATCC 25922; Escherichia coli, ATCC25922, inoculum size 10^6 CFU/ml, read-out: MIC): > 100 µg/mL | MIC (MRSE 2442-05053; [8]): 50 µg/mL (≈ 111 µM) | MIC (P. aeruginosa ATCC 27853; Pseudomonas aeruginosa, ATCC27853, inoculum size 10^6 CFU/ml, read-out: MIC): > 100 µg/mL | MIC (M. kansasii NIHJ1619; Mycobacterium kansasii, read-out: Minimum inhibitory concentrations (MIC)): > 25 µg/mL | MIC (M. fortuitum NIHJ1615; Mycolicibacterium fortuitum, read-out: Minimum inhibitory concentrations (MIC)): > 25 µg/mL | MIC (MRSA 2441-05104; [7]): 50 µg/mL (≈ 111 µM) | MIC (M. aurum; Mycolicibacterium aurum, read-out: Minimum inhibitory concentrations (MIC)): > 25 µg/mL | MIC (E. faecalis ATCC 29212; Enterococcus faecalis, ATCC29212, inoculum size 10^6 CFU/ml, read-out: MIC): 100 µg/mL (≈ 222 µM) | MIC [1, 9]: > 100 µg/mL | MIC (M. tuberculosis Kurono; Mycobacterium tuberculosis, read-out: Minimum inhibitory concentrations (MIC)): 25 µg/mL (≈ 55.5 µM) | MIC (MRSA 2441-05262; [7]): 100 µg/mL (≈ 222 µM) | MIC (MRSE 2442-05118; [8]): 50 µg/mL (≈ 111 µM) | MIC (VRSA 2441-T0041; [7]): > 100 µg/mL | MIC (S. aureus ATCC 29213; Staphylococcus aureus, ATCC29213, inoculum size 10^6 CFU/ml, read-out: MIC): 100 µg/mL (≈ 222 µM) | MIC (M. smegmatis Takeo; Mycolicibacterium smegmatis, read-out: Minimum inhibitory concentrations (MIC)): > 25 µg/mL | MIC [2, 9]: 100 µg/mL (≈ 222 µM) | MIC [3, 7]: 100 µg/mL (≈ 222 µM) | MIC (M. bovis BCG Tokyo; Mycobacterium tuberculosis variant bovis BCG, BCG, read-out: Minimum inhibitory concentrations (MIC)): 25 µg/mL (≈ 55.5 µM) | MIC (M. tuberculosis H37Rv; M. tuberculosis H37Rv, table line r9 (3rd of 5 so labelled), read-out: Minimum inhibitory concentrations (MIC)): 12.5 µg/mL (≈ 27.8 µM) | MIC (M. tuberculosis H37Rv; read-out: Minimum inhibitory concentrations (MIC), M. tuberculosis H37Rv, table line r7 (1st of 5 so labelled)): 25 µg/mL (≈ 55.5 µM) | MIC (M. tuberculosis H37Rv; read-out: Minimum inhibitory concentrations (MIC), M. tuberculosis H37Rv, table line r8 (2nd of 5 so labelled)): 25 µg/mL (≈ 55.5 µM) | MIC (M. tuberculosis H37Rv; read-out: Minimum inhibitory concentrations (MIC), M. tuberculosis H37Rv, table line r10 (4th of 5 so labelled)): 25 µg/mL (≈ 55.5 µM) | MIC (M. tuberculosis H37Rv; read-out: Minimum inhibitory concentrations (MIC), M. tuberculosis H37Rv, table line r11 (5th of 5 so labelled)): 25 µg/mL (≈ 55.5 µM) | MIC (MRSE 2442-05047; [8]): 50 µg/mL (≈ 111 µM) | MIC (MRSE 2442-05060; [8]): 50 µg/mL (≈ 111 µM) | MIC (MRSA 2441-05112; [7]): > 100 µg/mL | MIC (M. avium Flamingo; Mycobacterium avium, read-out: Minimum inhibitory concentrations (MIC)): > 25 µg/mL | MIC ([4]; Enterococcus faecium, read-out: MIC): 50 µg/mL (≈ 111 µM) | MIC (MRSE 2442-05110; [8]): 50 µg/mL (≈ 111 µM) | MIC (MRSE 2442-05030; [8]): 50 µg/mL (≈ 111 µM) | MIC ([5]; read-out: Minimum inhibitory concentrations (MIC)): > 25 µg/mL | MIC ([6]; Staphylococcus epidermidis, ATCC12228, inoculum size 10^6 CFU/ml, read-out: MIC): 50 µg/mL (≈ 111 µM) | MIC (MRSA 2441-05129; [7]): > 100 µg/mL | MIC (VRSA 2441-T0044; Staphylococcus aureus, VRSA): > 100 µg/mL | MIC (K. pneumoniae ATCC 27736; Klebsiella pneumoniae, ATCC27736, inoculum size 10^6 CFU/ml, read-out: MIC): > 100 µg/mL | MIC (S. marsascens ATCC 14756; read-out: MIC): > 100 µg/mL | MIC (MRSA 2441-05254; [7]): > 100 µg/mL

C=CCN(C)CCCCCCCCOc1ccc(C(=O)c2ccc(Cl)cc2)c(Cl)c1 [Cpd #20]
MIC (E. faecium ATCC 49224): 12.5 µg/mL (≈ 27.9 µM) | MIC (P. mirabilis ATCC 4630; inoculum size 10^6 CFU/ml): >100 µg/mL | MIC (MRSA 2441-05223): 25 µg/mL (≈ 55.7 µM) | MIC (E. coli ATCC 25922; inoculum size 10^6 CFU/ml): >100 µg/mL | MIC (MRSE 2442-05053): 12.5 µg/mL (≈ 27.9 µM) | MIC (P. aeruginosa ATCC 27853; inoculum size 10^6 CFU/ml): >100 µg/mL | Minimum inhibitory concentrations (MIC) (M. kansasii NIHJ1619): 12.5 µg/mL (≈ 27.9 µM) | Minimum inhibitory concentrations (MIC) (M. fortuitum NIHJ1615): >25 µg/mL | MIC (MRSA 2441-05104): 25 µg/mL (≈ 55.7 µM) | Minimum inhibitory concentrations (MIC) (M. aurum): 12.5 µg/mL (≈ 27.9 µM) | MIC (E. faecalis ATCC 29212; inoculum size 10^6 CFU/ml): 12.5 µg/mL (≈ 27.9 µM) | MIC [1]: 25 µg/mL (≈ 55.7 µM) | Minimum inhibitory concentrations (MIC) (M. tuberculosis Kurono): 6.25 µg/mL (≈ 13.9 µM) | MIC (MRSA 2441-05262): 25 µg/mL (≈ 55.7 µM) | MIC (MRSE 2442-05118): 12.5 µg/mL (≈ 27.9 µM) | MIC (VRSA 2441-T0041): 50 µg/mL (≈ 111 µM) | MIC (S. aureus ATCC 29213; inoculum size 10^6 CFU/ml): 25 µg/mL (≈ 55.7 µM) | Minimum inhibitory concentrations (MIC) (M. smegmatis Takeo): 25 µg/mL (≈ 55.7 µM) | MIC [2]: 12.5 µg/mL (≈ 27.9 µM) | MIC [3]: 25 µg/mL (≈ 55.7 µM) | Minimum inhibitory concentrations (MIC) (M. bovis BCG Tokyo; M. bovis BCG Tokyo, agar (7H11) dilution): 6.25 µg/mL (≈ 13.9 µM) | Minimum inhibitory concentrations (MIC) (M. tuberculosis H37Rv; M. tuberculosis H37Rv, table line r7 (1st of 5 so labelled)): 6.25 µg/mL (≈ 13.9 µM) | Minimum inhibitory concentrations (MIC) (M. tuberculosis H37Rv; M. tuberculosis H37Rv, table line r8 (2nd of 5 so labelled)): 6.25 µg/mL (≈ 13.9 µM) | Minimum inhibitory concentrations (MIC) (M. tuberculosis H37Rv; M. tuberculosis H37Rv, table line r9 (3rd of 5 so labelled)): 6.25 µg/mL (≈ 13.9 µM) | Minimum inhibitory concentrations (MIC) (M. tuberculosis H37Rv; M. tuberculosis H37Rv, table line r10 (4th of 5 so labelled)): 6.25 µg/mL (≈ 13.9 µM) | Minimum inhibitory concentrations (MIC) (M. tuberculosis H37Rv; M. tuberculosis H37Rv, table line r11 (5th of 5 so labelled)): 6.25 µg/mL (≈ 13.9 µM) | MIC (MRSE 2442-05047): 12.5 µg/mL (≈ 27.9 µM) | MIC (MRSE 2442-05060): 12.5 µg/mL (≈ 27.9 µM) | MIC (MRSA 2441-05112): 25 µg/mL (≈ 55.7 µM) | Minimum inhibitory concentrations (MIC) (M. avium Flamingo): 12.5 µg/mL (≈ 27.9 µM) | MIC [4]: 12.5 µg/mL (≈ 27.9 µM) | MIC (MRSE 2442-05110): 12.5 µg/mL (≈ 27.9 µM) | MIC (MRSE 2442-05030): 12.5 µg/mL (≈ 27.9 µM) | Minimum inhibitory concentrations (MIC) [5]: 12.5 µg/mL (≈ 27.9 µM) | MIC ([6]; inoculum size 10^6 CFU/ml): 25 µg/mL (≈ 55.7 µM) | MIC (MRSA 2441-05129): 25 µg/mL (≈ 55.7 µM) | MIC (VRSA 2441-T0044; VRSA 2441-T0044, low level VCM-resistant, inoculum size 10^6 CFU/ml): 50 µg/mL (≈ 111 µM) | MIC (K. pneumoniae ATCC 27736; inoculum size 10^6 CFU/ml): >100 µg/mL | MIC (S. marsascens ATCC 14756): >100 µg/mL | MIC (MRSA 2441-05254): 25 µg/mL (≈ 55.7 µM)
